Molecules are shown by their SMILES. Where a name gives a salt, the structure may show the parent alone. Read-outs that look alike come from different tables or passages of the source.

Assay [1] addresses T1, ERG11 gene product, lanosterol 14α-demethylase (Saccharomyces cerevisiae, UniProt P10614).
T1 construct: expressed in transfected cells; host or cells: S. cerevisiae target strain ABY676 (plasmids pAB98 GFP, pAB99 ERG11), co-cultured with decoy strain ABY674 (empty vectors YEplac195, YEplac112)
The experiment in a line: TDS co-culture pilot study with clotrimazole: ERG11/GFP-overexpressing target cells mixed with decoy cells, fluorescence readout. The assay is classed as cell-based. To be noted: 30° C., 88 h. The protocol:
FIG. 2: A Signal to noise ratios of ERG11-target and decoy co-cultures grown in the presence of clotrimazole. Cultures were prepared at various ratios of target: decoy cells (columns). Each ratio was also prepared at various total number of cells per well and are indicated at the top. Clotrimazole, which inhibits the ERG11 gene product, was introduced by serial dilution (rows). The concentrations of clotrimazole are indicated to the left of the table. The volume of medium in each well was 0.225 ml. The plate was allowed to incubate at 30° C. for 88 h. Fluorescence signal was determined by subtracting the fluorescent values from a medium control plate from the fluorescence values of each well in the test plate. Signal to noise ratios were determined by dividing these corrected values with the corresponding values in the no-drug well in the bottom row. B O.D.600 values of co-cultures in each well after growth. C A fluorescent image of the source plate.
To determine the optimal assay conditions, various target:decoy ratios were tested in the presence of different clotrimazole concentrations (FIG. 2). Clotrimazole is an anti-fungal compound that inhibits the […] gene product, lanosterol 14α-demethylase, a sterol biosynthetic enzyme (Georgopapadakou and Walsh, 1996, Antimicrob Agents Chemother 40:279-291). […]
Target and decoy cells were mixed at 1:10, 1:100 and 1:1000 ratios in the presence of various concentrations of clotrimazole. […] Following incubation at 30° C. for 88 h, the fluorescence from each well was determined. The fluorescent values were corrected for the background fluorescence of the medium are represented as the fold increase over the fluorescent signal from the corresponding no-drug treatment.
The amount of growth of the cells was determined by measuring optical density at 600 nm in a Molecular Devices Spectra Max 250 plate spectrophotometer (FIG. 2B). A fluorescent image of the plate, which served as the source for quantitation of the fluorescent signals, is also presented (FIG. 2C).

The next assay deals with Erg11p (Saccharomyces cerevisiae, UniProt P10614). To be noted: 25 target and 25,000 decoy cells (1:1000), 225 μl, 30° C., up to ten days.
Sequence of Erg11p (P10614 whole entry): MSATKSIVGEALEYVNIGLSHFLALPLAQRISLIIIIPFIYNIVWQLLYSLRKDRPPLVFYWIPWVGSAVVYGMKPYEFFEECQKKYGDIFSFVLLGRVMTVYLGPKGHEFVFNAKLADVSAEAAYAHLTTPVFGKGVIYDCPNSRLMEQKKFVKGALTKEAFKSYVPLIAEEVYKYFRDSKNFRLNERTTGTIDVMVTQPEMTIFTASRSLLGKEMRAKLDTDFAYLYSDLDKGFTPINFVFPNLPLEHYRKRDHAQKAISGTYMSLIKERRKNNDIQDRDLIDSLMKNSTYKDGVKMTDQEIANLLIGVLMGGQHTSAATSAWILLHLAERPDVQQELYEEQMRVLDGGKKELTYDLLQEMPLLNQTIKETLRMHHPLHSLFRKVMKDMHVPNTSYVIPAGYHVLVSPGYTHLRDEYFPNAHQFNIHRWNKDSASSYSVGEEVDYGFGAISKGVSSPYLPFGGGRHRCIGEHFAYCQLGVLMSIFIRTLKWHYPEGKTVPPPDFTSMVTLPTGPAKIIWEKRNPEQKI
The subject of assay [2] is yeast target and decoy cells. The experiment in a line: Growth (O.D.600) of the target/decoy yeast co-cultures in the MicroSource library screen. The assay is classed as cell-based, Saccharomyces cerevisiae. To be noted: both concentrations (5 μg/ml and 0.5 μg/ml). The protocol:
The plates were incubated at 30° C.

T1 sequence (P10614 whole entry): as above
Experimental for Erg11p: Target yeast cells overexpressing the ERG11 gene and GFP were mixed with decoy cells at a ratio of 1:1000 and portioned into 96-well plates. Each well contained 25 target cells and 25,000 decoy cells in 0.225 ml YM medium plus 2% casamino acids. 560 generic drugs from the MicroSource™ library were dispensed to each well to a final concentration of 5 μg/ml or 0.5 μg/ml and 1% DMSO. The plates were incubated at 30° C. for ten days.
To determine the specificity of the TDS assay, a chemical library of 560 compounds was screened using the same strains described in FIG. 2. […] The conditions chosen for the co-culture were 25 target cells and 25,000 decoy cells (1:1000 target: decoy ratio) in a volume of 225 μl.
Overnight cultures of the target and decoy cells were grown in YM medium plus 2% casamino acids to maintain selection for both episomal plasmids. One large batch of fresh medium (YM-Cas) was prepared that contained both target and decoy cells. This culture was diluted to 1×10^5 cells/ml and dispensed into the 96-well plates. Drugs from the Microsource library were then added to the cultures at two concentrations: 5 μg/ml plus 1% DMSO; and 0.5 μg/ml plus 0.1% DMSO. The plates were incubated at 30° C. Fluorescence and O.D.600 measurements were taken twice daily for ten days.

Consider `Clc1ccccc1C(c1ccccc1)(c1ccccc1)n1ccnc1` [clotrimazole], for which the “clotrimazole concentration range producing significant fluorescent signals” value in assay [1] (1:10 and 1:100 target:decoy ratios, highest density of cells per well) is 0.2 to 5.6 µg/mL; in assay [1] (1:10 and 1:100 target:decoy ratios, serial dilutions of cells), 0.2 to 2.8 µg/mL; in assay [1] (1:1000 target:decoy ratio, each of the cell densities) it was 0.2 to 5.6 µg/mL. The “fluorescent signal of co-culture versus no-drug treatment” value at Erg11p (0.5 μg/ml drug plus 0.1% DMSO) and on Erg11p (5 μg/ml drug plus 1% DMSO) was “significant fluorescent signal” each time.

`CCCCOc1ccc(C(=O)CCN2CCCCC2)cc1` [dyclonine-HCl]: the “growth inhibition of co-culture” value in assay [2] is “severely inhibited growth”.

Take `CN[C@@H](C)[C@H](O)c1ccccc1` [ephedrine-HCl]: the “growth inhibition of co-culture” value in assay [2] was “severely inhibited growth”.

Consider `CC(=O)N1CCN(c2ccc(OCC3COC(Cn4ccnc4)(c4ccc(Cl)cc4Cl)O3)cc2)CC1` (stereo not drawn) [ketoconazole], for which the “fluorescent signal of co-culture versus no-drug treatment” value at Erg11p (0.5 μg/ml drug plus 0.1% DMSO) is listed as “neither inhibited growth nor produced a positive signal”; on Erg11p (5 μg/ml drug plus 1% DMSO) it was “significant signal”.

For `Clc1ccc(COC(Cn2ccnc2)c2ccc(Cl)cc2Cl)c(Cl)c1` (stereo not drawn) [miconazole], the “fluorescent signal of co-culture versus no-drug treatment” value was “significant positive signals” on Erg11p (0.5 μg/ml drug plus 0.1% DMSO) and “too severe a growth inhibition to produce positive signals” on Erg11p (5 μg/ml drug plus 1% DMSO).

On to `C[CH2][Hg][S]c1ccccc1C(=O)[O-].[Na+]` [thimerosol], for which the “growth inhibition of co-culture” value in assay [2] is on record as “severely inhibited growth”.
